From ChEMBL document CHEMBL5223138, “Lead identification of novel tetrahydroimidazo[1,2-a]pyridine-5-carboxylic acid derivative as a potent heparanase-1 inhibitor” (Bioorg Med Chem Lett, 2023)

Key:
Heparanase = biological target: T1, Heparanase (Homo sapiens, UniProt Q9Y251); experiment: Inhibition of Heparanase-1 (unknown origin) by HTRF method
T1 sequence (Q9Y251 whole entry): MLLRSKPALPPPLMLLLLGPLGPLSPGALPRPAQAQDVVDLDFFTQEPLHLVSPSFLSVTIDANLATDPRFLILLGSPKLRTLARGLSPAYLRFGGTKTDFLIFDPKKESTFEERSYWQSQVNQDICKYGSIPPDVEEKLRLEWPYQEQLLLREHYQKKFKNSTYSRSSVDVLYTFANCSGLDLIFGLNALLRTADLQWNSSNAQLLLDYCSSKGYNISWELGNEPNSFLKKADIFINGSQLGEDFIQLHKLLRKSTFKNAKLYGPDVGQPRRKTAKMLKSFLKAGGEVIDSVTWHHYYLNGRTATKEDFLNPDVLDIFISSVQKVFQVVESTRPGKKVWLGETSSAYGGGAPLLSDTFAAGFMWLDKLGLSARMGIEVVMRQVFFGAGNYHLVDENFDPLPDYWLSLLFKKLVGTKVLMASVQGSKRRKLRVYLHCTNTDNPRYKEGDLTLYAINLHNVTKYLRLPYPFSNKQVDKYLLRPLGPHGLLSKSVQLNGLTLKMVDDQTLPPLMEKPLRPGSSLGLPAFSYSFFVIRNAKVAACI

[1] = Binding affinity to bovine liver beta-glucuronidase; set-up: species or system Bos taurus

Row | Structure (SMILES) | IC50 (Heparanase) | Ki [1]
1 | O=C(O)[C@@H]1[C@@H](O)[C@H](O)[C@@H](O)c2nc(CCc3ccc(C(F)(F)F)cc3)cn21 | 3.41 µM | –
2 | CCCCCCCCCCCCCCCc1cc(O[C@@H]2O[C@H](C(=O)O)[C@@H](O)[C@H](O)[C@H]2O)cc(O)c1C(=O)Oc1cc(C)c(C(=O)O)c(O)c1 | 9.19 µM | –
3 | O=C(O)[C@@H]1[C@@H](O)[C@H](O)[C@@H](O)c2nccn21 | – | 0.012 µM
